Laboratory results published in patent US20240254114A1, “PREPARATION OF FUSED AZOLE DERIVATIVES AS NOVEL DIACYLGLYCERIDE 0-ACYLTRANSFERASE 2 INHIBITORS” (Merck Sharp & Dohme LLC, priority 2022, published 2024).
Where two headings read alike, the source gives them in different places.

Biological target: human DGAT2 (Homo sapiens (Human), UniProt Q96PD7)
Test: DGAT2 Enzymatic Activity Assay
Conditions: 13C18-triolein product by LC/MS/MS
[1] = read-out: Human DGAT2 IC50, hDGAT2 membrane prep from Sf-9 cells

human DGAT2, sequence (Q96PD7 whole entry): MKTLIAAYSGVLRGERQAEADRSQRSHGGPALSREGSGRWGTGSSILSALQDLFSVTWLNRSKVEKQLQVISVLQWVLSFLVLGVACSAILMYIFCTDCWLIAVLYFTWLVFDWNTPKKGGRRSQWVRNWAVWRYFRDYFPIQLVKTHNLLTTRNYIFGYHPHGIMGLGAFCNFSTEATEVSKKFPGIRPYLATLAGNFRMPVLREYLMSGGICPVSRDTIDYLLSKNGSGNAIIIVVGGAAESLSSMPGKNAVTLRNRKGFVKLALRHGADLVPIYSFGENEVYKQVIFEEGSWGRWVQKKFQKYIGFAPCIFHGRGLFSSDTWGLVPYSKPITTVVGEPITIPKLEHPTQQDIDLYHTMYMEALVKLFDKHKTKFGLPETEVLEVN

Q: For `Cn1c(C(=O)NC2(C)CCS(=O)(=O)CC2)nc2ccc(OCc3ncc(F)cc3OCC(F)(F)F)nc21` [Example 59, 5-[[5-Fluoro-3-(2,2,2-trifluoroethoxy)-2-pyridyl]methoxy]-3-methyl-N-(4-methyl-1,1-dioxo-thian-4-yl)imidazo[4,5-b]pyridine-2-carboxamide], which IC50 [1] is on record?
A: The IC50 was 2.8 nM.

Q: With `Cn1c(C(=O)NC2(C)CCS(=O)(=O)CC2)nc2ncc(Oc3ncc(F)cc3OCC(F)(F)F)cc21` [Example 83, 6-[[5-fluoro-3-(2,2,2-trifluoroethoxy)-2-pyridyl]oxy]-1-methyl-N-(4-methyl-1,1-dioxo-thian-4-yl)imidazo[4,5-b]pyridine-2-carboxamide] as the molecule, how does the IC50 [1] read?
A: The IC50 was 12 nM.

Q: With `Cn1c(C(=O)NC2(C)CCS(=O)(=O)CC2)nc2c(F)cc(Oc3ncc(Cl)cc3OCC(F)F)cc21` [Example 27, 6-((5-chloro-3-(2,2-difluoroethoxy)pyridin-2-yl)oxy)-4-fluoro-1-methyl-N-(4-methyl-1,1-dioxidotetrahydro-2H-thiopyran-4-yl)-1H-benzo[d]imidazole-2-carboxamide] as the molecule, how does the IC50 (Human DGAT2 IC50, hDGAT2 membrane prep from Sf-9 cells) read?
A: The IC50 was 2.7 nM.

Q: For `CC1(NC(=O)c2nc3ccc(Oc4ncccc4OCC(F)(F)F)cc3s2)CS(=O)(=O)C1` [Example 92, N-(3-methyl-1,1-dioxo-thietan-3-yl)-6-[[3-(2,2,2-trifluoroethoxy)-2-pyridyl]oxy]-1,3-benzothiazole-2-carboxamide], which IC50 [1] is on record?
A: The IC50 was 12 nM.
